US6465663B2, “O- or S-substituted tetrahydronaphthalene derivatives having retinoid and/or retinoid antagonist-like biological activity” (Allergan, Inc., priority 1996, dated 2002)

What was measured:
[1] = target: T1, RARα (Homo sapiens, UniProt P10276); experiment: Ligand binding assay
T1 sequence (P10276 1-462): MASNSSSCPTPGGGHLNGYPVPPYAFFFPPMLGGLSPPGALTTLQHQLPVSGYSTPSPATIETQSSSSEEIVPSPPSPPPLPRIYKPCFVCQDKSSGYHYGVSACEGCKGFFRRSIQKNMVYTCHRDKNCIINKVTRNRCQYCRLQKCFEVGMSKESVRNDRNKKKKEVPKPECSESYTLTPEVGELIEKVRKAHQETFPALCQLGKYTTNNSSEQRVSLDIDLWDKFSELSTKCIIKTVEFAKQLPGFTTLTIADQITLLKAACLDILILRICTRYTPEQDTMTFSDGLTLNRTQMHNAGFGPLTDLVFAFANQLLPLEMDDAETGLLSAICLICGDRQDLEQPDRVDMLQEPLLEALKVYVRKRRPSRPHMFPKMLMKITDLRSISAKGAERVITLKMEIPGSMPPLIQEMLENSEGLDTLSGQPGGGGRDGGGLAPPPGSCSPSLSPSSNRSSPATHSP
Description: (§1) Other assays described below, measure the ability of the compounds of the present invention to bind to, and/or activate various retinoid receptor subtypes. When in these assays a compound binds to a given receptor subtype and activates the transcription of a reporter gene through that subtype, then the compound is considered an agonist of that receptor subtype. […] In the below described assays the ability of the compounds to bind to RARα, RARβ, RARγ, RXRα, RXRβ and RXRΓ receptors, and the ability or inability of the compounds to activate transcription of a reporter gene through these receptor subtypes can be tested.
(§2) A holoreceptor transactivation assay and a ligand binding assay which measure the antagonist/agonist like activity of the compounds of the invention, or their ability to bind to the several retinoid receptor subtypes, respectively, are described in published PCT Application No. WO WO93/11755 (particularly on pages 30-33 and 37-41) published on Jun. 24, 1993, the specification of which is also incorporated herein by reference. A description of the holoreceptor transactivation assay is also provided below.
(§3) CV1 cells (5,000 cells/well) were transfected with an RAR reporter plasmid MTV-TREp-LUC (50 ng) along with one of the RAR expression vectors (10 ng) in an automated 96-well format by the calcium phosphate procedure of Heyman et al. Cell 68, 397-406, (1992). For RXRα and RXRγ transactivation assays, an RXR-responsive reporter plasmid CRBPII-tk-LUC (50 ng) along with the appropriate RXR expression vectors (10 ng) was used substantially as described by Heyman et al. above, and Allegretto et al. J. Biol. Chem. 268, 26625-26633. For RXRβ transactivation assays, an RXR-responsive reporter plasmid CPRE-tk-LUC ([…]) along with RXRβ expression vector ([…]) was used as described in above. These reporters contain DRI elements from human CRBPII and certain DRI elements from promoter, respectively. (see Mangelsdorf et al. The Retinoids: Biology, Chemistry and Medicine, pp 319-349, Raven Press Ltd., New York and Heyman et al., cited above) (1, 8). A β-galactosidase (50 ng) expression vector was used as an internal control in the transfections to normalize for variations in transfection efficiency. The cells were transfected in triplicate for 6 hours, followed by incubation with retinoids for 36 hours, and the extracts were assayed for luciferase and β-galactosidase activities. The detailed experimental procedure for holoreceptor transactivations has been described in Heyman et al. above, and Allegretto et al. cited above. The results obtained in this assay are expressed in EC50 numbers, as they are also in the chimeric receptor transactivation assay. The Heyman et al. Cell 68, 397-406, Allegretto et al. J. Biol. Chem. 268, 26625-26633, and Mangelsdorf et al. The Retinoids: Biology, Chemistry and Medicine, pp 319-349, Raven Press Ltd., New York, are expressly incorporated herein by reference. The results of ligand binding assay are expressed in Kd numbers. (See Cheng et al. Biochemical Pharmacology Vol. 22 pp 3099-3108, expressly incorporated herein by reference.)

[2] = target: T2, RARβ (Homo sapiens, UniProt P10826); experiment: Ligand binding assay
T2 sequence (P10826 1-455): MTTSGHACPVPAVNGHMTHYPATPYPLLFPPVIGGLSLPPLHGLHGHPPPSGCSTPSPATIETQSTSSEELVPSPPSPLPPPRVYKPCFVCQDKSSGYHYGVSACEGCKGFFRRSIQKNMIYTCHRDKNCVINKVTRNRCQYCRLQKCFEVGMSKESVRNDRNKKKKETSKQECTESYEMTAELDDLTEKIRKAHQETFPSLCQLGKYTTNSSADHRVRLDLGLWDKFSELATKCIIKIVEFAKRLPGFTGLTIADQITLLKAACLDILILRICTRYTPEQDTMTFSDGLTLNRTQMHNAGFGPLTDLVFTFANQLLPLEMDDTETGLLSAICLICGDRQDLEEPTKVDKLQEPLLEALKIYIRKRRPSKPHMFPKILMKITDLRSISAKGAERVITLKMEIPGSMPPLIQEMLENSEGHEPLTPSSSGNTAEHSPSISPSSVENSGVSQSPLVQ
Description: as §1, §2, §3

[3] = target: T3, RARγ (Homo sapiens, UniProt P13631); experiment: Ligand binding assay
T3 sequence (P13631 1-454): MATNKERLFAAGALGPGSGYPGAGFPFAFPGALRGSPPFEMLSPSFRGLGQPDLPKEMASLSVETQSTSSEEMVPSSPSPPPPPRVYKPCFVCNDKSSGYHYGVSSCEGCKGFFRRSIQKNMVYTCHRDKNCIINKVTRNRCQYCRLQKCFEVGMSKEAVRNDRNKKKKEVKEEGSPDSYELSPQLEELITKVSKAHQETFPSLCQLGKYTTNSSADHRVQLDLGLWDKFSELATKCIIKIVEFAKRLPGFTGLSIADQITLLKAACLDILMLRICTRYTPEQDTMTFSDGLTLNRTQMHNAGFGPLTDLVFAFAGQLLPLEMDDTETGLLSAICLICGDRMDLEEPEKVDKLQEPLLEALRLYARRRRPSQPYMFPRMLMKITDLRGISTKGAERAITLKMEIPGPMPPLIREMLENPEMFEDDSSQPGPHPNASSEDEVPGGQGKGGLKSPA
Description: as §1, §2, §3

[4] = system: ornithine decarboxylase (ODC); experiment: ODC assay: inhibition of TPA induction of ornithine decarboxylase activity; assay type: in vivo; settings: concentration of the test compound which causes 80% inhibition in the ODC assay; cell marked (IC80)
Description: A classic measure of retinoic acid activity involves measuring the effects of retinoic acid on ornithine decarboxylase. […] That reference discloses that ornithine decarboxylase (ODC) activity increased precedent to polyamine biosynthesis. It has been established elsewhere that increases in polyamine synthesis can be correlated or associated with cellular proliferation. Thus, if ODC activity could be inhibited, cell hyperproliferation could be modulated. Although all cases for ODC activity increases are unknown, it is known that 12-0-tetradecanoylphorbol-13-acetate (TPA) induces ODC activity. Retinoic acid inhibits this induction of ODC activity by TPA.

Structure (SMILES) | Kd [1] [nM] | Kd [2] [nM] | Kd [3] [nM] | IC80 [4]
CCO/N=C1\CCC(C)(C)c2ccc(/C(C)=C/C=C/C(C)=C/C(=O)O)cc21 [Compound C25, 7-[4,4-dimethyl-3,4-dihydro-1(2H)-anti-(O-ethyl oxime)-naphth-7-yl]3,7-dimethyl-hepta-2(E),4(E),6(E)-trienoic Acid] | 19 | 12 | 42 | –
CC(C)=C1CCC(C)(C)c2ccc(C(=O)Oc3ccc(C(=O)O)cc3)cc21 [Compound E14] | 36 | 35 | 455 | –
CCO/N=C1\CCC(C)(C)c2ccc(/C=C/c3ccc(C(=O)O)cc3)cc21 [Compound A6, (E)-4-[2-(5,5-Dimethyl-5,6,-dihydro-8(7H)-anti-(O-ethyl oxime)-naphthalen-2-yl)ethenyl]-benzoic acid] | 125 | 36 | 127 | –
CC1(C)CC=C(S(=O)(=O)c2ccccc2)c2cc(C(=O)Oc3ccc(C(=O)O)cc3)ccc21 [Compound E27] | 551 | 535 | > 1000 | –
CC(C)(C)C1=CCC(C)(C)c2ccc(C(=O)Nc3ccc(C(=O)O)cc3)cc21 [Compound E80, 4-[(5,5-dimethyl-5,6-dihydro-8-(1,1-dimethylethyl)-2-naphthalenyl)carboxamido]-benzoic Acid] | 394 | 531 | 901 | –
CC1(C)CCC(=O)c2cc(/C=C/c3ccc(C(=O)O)cc3)ccc21 [Compound A2a, (E)-4-[2-(5,6,7,8-tetrahydro-5,5-dimethyl-8-oxo-2-naphthalenyl)ethenyl]-benzoic acid] | 150 | 219 | 421 | –
CC1(C)CC=C(c2cccs2)c2ccc(C(=O)C=Cc3ccc(C(=O)O)cc3)cc21 [Compound D34, 4-[3-oxo-3-(7,8-dihydro-5-(2-thienyl)-8,8-dimethyl-2-naphthalenyl)-1-propenyl]-benzoic acid] | 235 | 200 | 530 | 4.3 (IC80) nmols
CC1(C)CC=C(Sc2ccccc2)c2cc(/C=C/c3ccc(C(=O)O)cc3)ccc21 [Compound A18, (E)-4-[2-(5,6-dihydro-5,5-dimethyl-8-(phenylthio)-naphthalen-2-yl)ethenyl] benzoic acid] | 538 | 193 | 162 | –
CC(C)=C1CCC(C)(C)c2ccc(C(=O)Nc3ccc(C(=O)O)cc3)cc21 [Compound E17] | 192 | 378 | > 1000 | –
CC1(C)CCC(OC2CCCCO2)c2cc(C(=O)Oc3ccc(C(=O)O)cc3)ccc21 (single isomer, unassigned) [Compound E67, 4-[5,6,7,8-tetrahydro-8(S or R)-(2′(S or R)tetrahydropyranoxy)-5,5-dimethyl-2-napthoyloxy]benzoic Acid] | 77 | 302 | 375 | –
CCC(CC)=C1CCC(C)(C)c2ccc(/C=C/c3ccc(C(=O)O)cc3)cc21 [Compound A28, (E)-4-[2-(5,6-Dihydro-5,5-dimethyl-8(7H)-(pentyliden-3-yl)-naphthalen-2-yl)ethenyl]benzoic acid] | 4 | 3 | 42 | –
